Reference: patent publication US9284303B2, “Benzimidazole cannabinoid agonists bearing a substituted heterocyclic group” (priority 2006, dated 2016)

Tests used:
[1] = biological target: T1, human CB1 (hCB1) receptor (Homo sapiens, UniProt P21554); test: Inhibition of forskolin-activated cAMP production upon activation of hCB1 (HTRF), CHO-K1 cells; type: cell-based; details: forskolin-activated cAMP, pEC50=-log(EC50); for EC50: CB1 pEC50, hCB1-CHO-K1 cells
T1 construct: expressed in transfected cells; host or cells: CHO-K1
T1 sequence (P21554 whole entry): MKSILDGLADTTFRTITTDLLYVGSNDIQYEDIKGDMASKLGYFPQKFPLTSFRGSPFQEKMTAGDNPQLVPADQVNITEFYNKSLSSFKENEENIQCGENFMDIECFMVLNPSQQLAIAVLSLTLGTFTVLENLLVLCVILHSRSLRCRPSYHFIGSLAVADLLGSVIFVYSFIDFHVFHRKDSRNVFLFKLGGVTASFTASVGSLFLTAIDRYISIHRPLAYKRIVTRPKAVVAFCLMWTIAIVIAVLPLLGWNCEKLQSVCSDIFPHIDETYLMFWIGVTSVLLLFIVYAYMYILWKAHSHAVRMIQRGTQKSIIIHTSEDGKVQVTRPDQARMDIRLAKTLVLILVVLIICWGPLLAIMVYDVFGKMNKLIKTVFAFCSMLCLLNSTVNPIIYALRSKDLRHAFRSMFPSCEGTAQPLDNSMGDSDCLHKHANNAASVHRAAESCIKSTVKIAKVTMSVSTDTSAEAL
Summary of the method: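 CHO-K1 cells stably expressing hCB1 (20,000/well) were in HBSS stimulation buffer (1 mM IBMX, 10 mM MgCl2, 0.1% BSA, pH 7.4), with 6 μM forskolin in the compound buffer, 30 min at room temperature in the dark. cAMP was read as HTRF 665/620 ratio, normalized to DMSO and CP55490. Outputs were pEC50 and inhibition at 10 μM relative to CP55490.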

[2] = biological target: T2, human CB2 (hCB2) receptor (Homo sapiens, UniProt P34972); test: Inhibition of forskolin-activated cAMP production upon activation of hCB2 (HTRF), CHO-K1 cells; type: cell-based; details: for ratio CB2 agonism over CB1 agonism: Table C-1, selectivity hCB2 over hCB1; for EC50: hCB2-CHO-K1 cells, forskolin-activated cAMP, pEC50=-log(EC50), read-out: CB2 pEC50 (converted)
T2 construct: expressed in transfected cells; host or cells: CHO-K1
T2 sequence (P34972 whole entry): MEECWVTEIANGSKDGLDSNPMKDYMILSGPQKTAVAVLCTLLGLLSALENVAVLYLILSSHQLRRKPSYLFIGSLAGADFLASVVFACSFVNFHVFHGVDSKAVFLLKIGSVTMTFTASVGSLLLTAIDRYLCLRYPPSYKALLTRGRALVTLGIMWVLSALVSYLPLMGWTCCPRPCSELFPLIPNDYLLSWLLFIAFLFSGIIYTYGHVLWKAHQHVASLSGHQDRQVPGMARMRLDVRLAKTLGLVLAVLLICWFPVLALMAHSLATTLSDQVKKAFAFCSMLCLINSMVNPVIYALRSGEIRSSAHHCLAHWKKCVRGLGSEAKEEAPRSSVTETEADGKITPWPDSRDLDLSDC

CC(C)(C)c1nc2cc(S(=O)(=O)c3ccc(=O)[nH]n3)ccc2n1CC1CCOCC1 [Co. No. 94]
EC50 [1]: 2690 nM
ratio CB2 agonism over CB1 agonism [2]: 1059
EC50 [2]: 2.51 nM
melting point: 218.3 °C

CC(=O)NCCNc1cc(S(=O)(=O)c2ccc3c(c2)nc(C(C)(C)C)n3CC2CCOCC2)ccn1 [Co. No. 123]
EC50 [1]: > 10000 nM
ratio CB2 agonism over CB1 agonism [2]: >2399
EC50 [2]: 4.17 nM
melting point: 217.2 °C

CC(C)(C)c1nc2cc(S(=O)(=O)c3ccc(C(C)(C)O)s3)ccc2n1CC1CCOCC1 [Co. No. 53]
EC50 [1]: 2240 nM
ratio CB2 agonism over CB1 agonism [2]: 607
EC50 [2]: 3.72 nM
melting point: 258 °C

CC(C)(C)c1nc2cc(S(=O)(=O)c3ccc(-c4ncon4)s3)ccc2n1CC1CCOCC1 [Co. No. 48]
EC50 [1]: 200 nM
ratio CB2 agonism over CB1 agonism [2]: 347
EC50 [2]: 0.575 nM
melting point: 199 °C

COc1cc(S(=O)(=O)c2ccc3c(c2)nc(C(C)(C)C)n3CC2CCOCC2)c(F)cn1 [Co. No. 72]
EC50 [1]: 1020 nM
ratio CB2 agonism over CB1 agonism [2]: 1525
EC50 [2]: 0.676 nM
melting point: 139.6 to 140.2 °C

COC(=O)c1ccc(S(=O)(=O)c2ccc3c(c2)nc(C(C)(C)C)n3CC2CCOCC2)nc1 [Co. No. 30]
EC50 [1]: 5250 nM
ratio CB2 agonism over CB1 agonism [2]: 3055
EC50 [2]: 1.7 nM
melting point: 195 to 197 °C

CC(=O)Nc1ccc(S(=O)(=O)c2ccc3c(c2)nc(C(C)(C)C)n3CC2CCOCC2)nn1 [Co. No. 101]
EC50 [1]: 148 nM
ratio CB2 agonism over CB1 agonism [2]: 58
EC50 [2]: 2.51 nM
melting point: 290.1 °C

Cn1cc(S(=O)(=O)c2ccc3c(c2)nc(C(C)(C)C)n3CC2CCN(C=O)CC2)cn1 [Co. No. 156]
EC50 [1]: 2510 nM
ratio CB2 agonism over CB1 agonism [2]: 617
EC50 [2]: 4.07 nM
melting point: 213.9 °C

CC(C)(C)c1nc2cc(S(=O)(=O)c3ccnc(C#N)c3)ccc2n1CC1CCOCC1 [Co. No. 17]
EC50 [1]: 9330 nM
ratio CB2 agonism over CB1 agonism ([2]; listed as 17): 5821
ratio CB2 over CB1 agonism ([2]; Table C-3, comparison of art compounds A to E with compounds of the invention): 5821
EC50 [2]: 1.58 nM
melting point: 201.2 °C

CC(C)(C)c1nc2cc(S(=O)(=O)c3ccnc(OCCCO)c3)ccc2n1CC1CCOCC1 [Co. No. 152]
CB1 pEC50 ([1]; hCB1-CHO-K1 cells): 5.44
ratio CB2 agonism over CB1 agonism [2]: 3090
EC50 [2]: 1.17 nM
melting point: 161.5 °C

Cc1nc(-c2csc(S(=O)(=O)c3ccc4c(c3)nc(C(C)(C)C)n4CC3CCOCC3)c2)no1 [Co. No. 5]
EC50 [1]: 257 nM
ratio CB2 agonism over CB1 agonism [2]: 676
EC50 [2]: 0.372 nM
melting point: 192 to 193 °C

CC(C)(C)c1nc2cc(S(=O)(=O)c3ccc(C#N)nc3)ccc2n1CC1CCOCC1 [Co. No. 51]
EC50 [1]: 89.1 nM
ratio CB2 agonism over CB1 agonism [2]: 73
EC50 [2]: 1.23 nM
melting point: 228 °C

CC(C)(C)c1nc2cc(S(=O)(=O)c3ccnc(Cl)c3)ccc2n1CC1CCOCC1 [Co. No. 18]
EC50 [1]: 631 nM
ratio CB2 agonism over CB1 agonism [2]: 933
EC50 [2]: 0.676 nM
melting point: 201 °C

CC(C)(C)c1nc2cc(S(=O)(=O)c3cc(C(F)(F)F)ccn3)ccc2n1CC1CCOCC1 [Co. No. 105]
EC50 [1]: 479 nM
ratio CB2 agonism over CB1 agonism [2]: 295
EC50 [2]: 1.58 nM
melting point: 139.5 to 141 °C

CC(C)(C)c1nc2cc(S(=O)(=O)c3ccc(S(C)(=O)=O)s3)ccc2n1CC1CCOCC1 [Co. No. 57]
EC50 [1]: 1450 nM
ratio CB2 agonism over CB1 agonism ([2]; listed as 57): 1328
EC50 [2]: 1.1 nM
melting point: 216 °C

COc1ccc(S(=O)(=O)c2ccc3c(c2)nc(C(C)(C)C#N)n3CC2CCOCC2)nn1 [Co. No. 92]
EC50 [1]: 2950 nM
ratio CB2 agonism over CB1 agonism [2]: 437
EC50 [2]: 6.92 nM
melting point: 161.1 °C

COCCNC(=O)c1ccc(S(=O)(=O)c2ccc3c(c2)nc(C(C)(C)C)n3CC2CCCCC2)nc1 [Co. No. 37]
EC50 [1]: > 10000 nM
ratio CB2 agonism over CB1 agonism [2]: >10839
EC50 [2]: 0.933 nM
melting point: 206 to 207 °C
